Measurements as given in patent US20220323594A1, “LIPIDATED CATIONIC PEPTIDE-PEG COMPOSITIONS FOR NUCLEIC ACID DELIVERY” (NUTCRACKER THERAPEUTICS, INC., priority 2019, published 2022).

How the values were obtained:
[1] = system: HeLa cells; test: In vitro Fluc expression with variable peptoid:mRNA mass ratio, 2% DMG-PEG2000; assay type: cell-based; conditions: 24 h; for Observed Luciferase Expression (RLU) for Given Formulation Mass Ratio 2:1: 2% (w/w) DMG-PEG2000, peptoid:mRNA 2:1; for Observed Luciferase Expression (RLU) for Given Formulation Mass Ratio 3.5:1: 2% (w/w) DMG-PEG2000, peptoid:mRNA 3.5:1; for Observed Luciferase Expression (RLU) for Given Formulation Mass Ratio 5:1: 2% (w/w) DMG-PEG2000, peptoid:mRNA 5:1; for Observed Luciferase Expression (RLU) for Given Formulation Mass Ratio 7.5:1: 2% (w/w) DMG-PEG2000, peptoid:mRNA 7.5:1
Experimental: The charge ratio dependence of amino lipidated peptoid delivery vehicles was evaluated by formulating particles between Fluc mRNA and delivery vehicles at varying mass ratios. Formulations were varied between 2:1 and 7.5:1 peptoid:mRNA (w/w) ratios (2:1, 3.5:1, 5:1 and 7.5:1). In addition, the role of DMG-PEG2000 was also explored with the mass ratios, either by excluding DMG-PEG2000 or incorporating DMG-PEG2000 at 2% (w/w) relative to amino lipidated peptoid. Fluc expression from these formulations was measured in HeLa cells following treatment for 24 hours. […] FIGS. 6B and 6C show plots of the average bioluminescence (RLU) for HeLa cells treated with the formulations of exemplary amino lipidated cationic peptoid compounds 1-36, all formulated with 2% w/w DMG-PEG2000.

[2] = mRNA encapsulation by fluorescence of Qubit RNA HS dye before and after lysis with Triton X-100; assay type: physicochemical; conditions: percentage of mRNA encapsulation; Fluc mRNA/peptoid formulation, 5:1 mass ratio
Experimental: (§1) The exemplary amino lipidated cationic peptoids described in Example 2 were combined with firefly luciferase (Fluc) mRNA to form nanoparticle compositions to be evaluated for therapeutic and/or prophylactic purposes in vitro or in vivo. The formulations were prepared according to the protocol of Example 3 and mixed by simple pipetting. The mRNA/peptoid formulation at a 5:1 mass ratio of peptoid:cargo were evaluated by dynamic light scattering (DLS) in order to determine the volume average particle size/diameter (nm) of the mRNA/peptoid complex and the size polydispersity index (PDI) within the formulation. The percentage of mRNA encapsulation for each formulation of the exemplary compounds were determined by fluorescence of the Qubit RNA HS (Invitrogen) dye before and after lysis of particles by Triton X-100.

[3] = Dynamic light scattering (DLS) of mRNA/peptoid formulations: particle size and polydispersity; assay type: physicochemical; conditions: Fluc mRNA/peptoid formulation; for Size PDI: size polydispersity index by DLS, 5:1 mass ratio; for Size (nm): volume average particle size/diameter by DLS, 5:1 mass ratio peptoid:cargo
Experimental: as §1, with “To prepare nanoparticle formulations, the amino lipidated peptoid is mixed by pipetting with nucleic acid at a mass ratio between approximately 1:1 (peptoid:cargo) and 20:1. Prior to formulation, amino lipidated peptoid and nucleic acid cargo were diluted in ethanol and acidic buffer (PBS adjusted to pH 5.5 with 0.1 M HCl) respectively to a volume ratio of 1:3 and to target a final cargo concentration of approximately 0.05 mg/mL to 0.2 mg/mL. The exemplary” for “The exemplary”

[4] = system: HeLa cells; test: In vitro expression of firefly luciferase (Fluc) after treatment with Fluc mRNA/amino lipidated peptoid formulations, no PEG or 2% DMG-PEG2000; assay type: cell-based
Experimental: The efficacy of mRNA/amino lipidated peptoid formulations was evaluated in vitro based on their ability to deliver the firefly luciferase (Fluc) reporter gene to cultured cells. Amino lipidated peptoids were combined with Fluc mRNA at a 5:1 w/w ratio, and the resulting particles were added to cultured HeLa cells at a dose of 100 ng/well (in 100 μL total volume). The resulting luciferase expression (RLU) was measured by a luminescence plate reader after 6 hours and 24 hours of treatment. […] In addition to evaluating nanoparticle complexes formed between mRNA cargos and amino lipidated peptoids alone, multicomponent formulations containing a small amount of PEG-lipid DMG-PEG2000 were also tested for in vitro Fluc mRNA delivery. In these formulations, DMG-PEG2000 was pre-mixed with candidate peptoid at an overall 2% incorporation (w/w), while maintaining the same 5:1 mass ratio of peptoid:mRNA used previously.

[5] = MTT viability assay after treatment with Fluc mRNA/amino lipidated peptoid formulations; assay type: cell-based; conditions: human, HeLa cells
Experimental: Cellular viability was measured following treatment with Fluc mRNA/amino lipidated peptoid formulations by a traditional MTT viability assay. […] In this assay, cells were first treated with peptoid formulations at a final mRNA concentration of 100 ng/well for 8 hours. Cells were then left to grow for 48 hours, after which time they were exposed to 1.5 mg/mL 3-(4,5-dimethylthiazol-2-yl)-2,5-diphenyltetrazolium bromide (MTT) for 2 hours, then lysed using a solubilizing solution of 10% Triton-X 100 in acidic isopropanol (0.1N HCl). The signal corresponding to reduced formazan was normalized to untreated cells to provide a relative viability of each treated condition. […] In general, nearly all conditions maintained at least 80% viability with the only exceptions being formulations of compound 5, 34, and 35.

[6] = no PEG, peptoid:Fluc mRNA 5:1 w/w, 100 ng/well, 6 h of treatment
[7] = no PEG, peptoid:Fluc mRNA 5:1 w/w, 100 ng/well, 24 h of treatment
[8] = with 2% (w/w) DMG-PEG2000, peptoid:mRNA 5:1, 6 h after treatment
[9] = with 2% (w/w) DMG-PEG2000, peptoid:mRNA 5:1, 24 h after treatment

% Encapsulation [2] [%]	Size PDI [3]	Size (nm) [3] [nm]	Compound	Observed Luciferase Expression (RLU) for Given Formulation Mass Ratio 2:1 [1] [RLU]	Observed Luciferase Expression (RLU) for Given Formulation Mass Ratio 3.5:1 [1] [RLU]	Observed Luciferase Expression (RLU) for Given Formulation Mass Ratio 5:1 [1] [RLU]	Observed Luciferase Expression (RLU) for Given Formulation Mass Ratio 7.5:1 [1] [RLU]	Luciferase Expression (RLU) 6 h [4, 6] [RLU]	Luciferase Expression (RLU) 24 h [4, 7] [RLU]	Luciferase Expression (RLU) 6 h [4, 8] [RLU]	Luciferase Expression (RLU) 24 h [4, 9] [RLU]	viability at 8 h, 500 ng/well ([5]; Relative Viability (%) 2% PEG) [%]	viability at 8 h, 500 ng/well ([5]; Relative Viability (%) No PEG) [%]	viability at 8 h, 500 ng/well ([5]; viability) [%]
73.9	0.122	367.9	CCCCCCCCCCN(CC(N)=O)C(=O)CN(CCCCCCCCCC)C(=O)CN(CCc1ccccc1)C(=O)CN(CCc1ccccc1)C(=O)CNCCN [Compound 9]	2.28E+02	3.67E+02	9.91E+02	1.82E+02	1.52E+02	8.57E+01	1.38E+02	3.33E+01	107	99.3	
95.9	0.247	255.3	CCCCCCCCCCCCN(CC(N)=O)C(=O)CN(CCCCCCCCCCCC)C(=O)CN(CCc1ccccc1)C(=O)CN(CCc1ccccc1)C(=O)CN(CCN)C(=O)CN(CCc1ccccc1)C(=O)CN(CCc1ccccc1)C(=O)CN(CCN)C(=O)CN(CCc1ccccc1)C(=O)CN(CCc1ccccc1)C(=O)CNCCN [Compound 3]	4.42E+03	2.56E+03	4.53E+03	2.69E+03	2.27E+02	2.99E+02	3.14E+02	4.68E+02	95.3	91.2	
76.9	1	1064	CCCCCCCCCCN(CC(N)=O)C(=O)CN(CCCCCCCCCC)C(=O)CN(CCN)C(=O)CN(CCN)C(=O)CN(CCN)C(=O)CN(CCN)C(=O)CNCCN [Compound 15]	8.85E+01	3.62E+01	2.01E+01	6.70E+00	3.93E+01	1.90E+01	5.33E+00	5.33E+00	91.9	91.2	
87.8	0.038	354.9	CCCCCCCCCCN(CC(N)=O)C(=O)CN(CCCCCCCCCC)C(=O)CN(CCc1ccccc1)C(=O)CN(CCc1ccccc1)C(=O)CN(CCN)C(=O)CN(CCc1ccccc1)C(=O)CN(CCc1ccccc1)C(=O)CN(CCN)C(=O)CN(CCc1ccccc1)C(=O)CN(CCc1ccccc1)C(=O)CN(CCN)C(=O)CN(CCc1ccccc1)C(=O)CN(CCc1ccccc1)C(=O)CNCCN [Compound 11]	2.79E+04	3.14E+04	4.48E+04	4.36E+03	1.15E+03	1.22E+03	3.90E+02	5.23E+02	104	104	
72.2	0.37	326.6	CCCCCCCCCCN(CC(N)=O)C(=O)CN(CCCCCCCCCC)C(=O)CN(CCCCCCCCCC)C(=O)CN(CCCCCCCCCC)C(=O)CN(CCCCCCCCCC)C(=O)CN(CCc1ccccc1)C(=O)CN(CCc1ccccc1)C(=O)CN(CCN)C(=O)CN(CCc1ccccc1)C(=O)CN(CCc1ccccc1)C(=O)CNCCN [Compound 20]	1.31E+03	2.47E+04	1.31E+04	2.27E+04	9.91E+03	1.55E+04	1.75E+04	1.36E+04	93	87.1	
88.3	0.308	364.7	CCCCCCCCCCCCCCCCCCN(CC(N)=O)C(=O)CN(CCCCCCCCCCCCCCCCCC)C(=O)CN(CCc1ccccc1)C(=O)CN(CCc1ccccc1)C(=O)CN(CCN)C(=O)CN(CCc1ccccc1)C(=O)CN(CCc1ccccc1)C(=O)CN(CCN)C(=O)CN(CCc1ccccc1)C(=O)CN(CCc1ccccc1)C(=O)CNCCN [Compound 5]	5.81E+02	1.15E+03	9.21E+02	1.14E+03	9.60E+01	5.36E+02	3.46E+02	1.22E+02	91.2	56.8	< 80
90.4	0.447	822.6	CCCCCCCCCCN(CC(N)=O)C(=O)CN(CCCCCCCCCC)C(=O)CN(CCc1ccccc1)C(=O)CN(CCN)C(=O)CN(CCc1ccccc1)C(=O)CN(CCN)C(=O)CN(CCc1ccccc1)C(=O)CNCCN [Compound 13]	2.68E+01	1.74E+01	1.39E+02	5.36E+00	3.67E+00	9.67E+00	3.27E+01	2.67E+00	85.9	90.2	
